These results are taken from patent US20250282829A1, “ENGINEERED SYNTHETIC PEPTIDES, COMPOSITIONS COMPRISING SAME, AND METHODS OF USE THEREOF FOR TREATING MALIGNANT GLIOMAS” (INSTYTUT BIOLOGII DOSWIADCZALNEJ IM. MARCELEGO NENCKIEGO …, priority 2022, published 2025).

The target of one experiment is T1, alphav integrins (Homo sapiens, UniProt P06756).
T1 construct: host or cells: patients
As to conditions: large number of patients, phase III; cited from earlier work.

The target of a further experiment is recombinant OPN protein (Homo sapiens, UniProt P10451). In words: ELISA assessing peptide-protein binding. The note with it: N-terminal biotin peptides on OPN-coated plates. On the procedure: FIGS. 2A and 2B. OPN-binding peptides. (FIG. 2A) OPN binding peptides were identified using peptide microarrays comprising synthetic peptides. Images of peptide microarrays after incubation with PBS buffer (control), with rhOPN and after immunochemical staining. Control peptides (peptide containing Myc tag—positive control) and peptides with the highest signal were marked on the microarray image. (FIG. 2B) OPN binding peptides identified using ELISA. Peptides with the strongest binding to OPN were selected. Means ±SD are shown, standard deviations were calculated from three independents measurements.
recombinant OPN protein, sequence (P10451 17-314): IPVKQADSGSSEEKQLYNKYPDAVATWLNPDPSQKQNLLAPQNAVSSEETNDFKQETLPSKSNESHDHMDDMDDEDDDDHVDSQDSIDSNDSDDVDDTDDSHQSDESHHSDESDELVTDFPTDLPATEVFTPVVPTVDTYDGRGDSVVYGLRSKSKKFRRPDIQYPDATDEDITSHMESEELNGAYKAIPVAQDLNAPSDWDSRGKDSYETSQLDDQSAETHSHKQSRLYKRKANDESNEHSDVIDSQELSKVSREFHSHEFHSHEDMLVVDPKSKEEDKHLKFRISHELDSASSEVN
To verify the obtained results, the ELISA method assessing peptide-protein binding was used. In the assay, 96-well ELISA plates were coated with recombinant OPN protein. Uncoated wells were used as controls. Unbound proteins were then washed away and the remaining non-specific binding was blocked with bovine serum protein (BSA). Test peptides with N-terminal biotin attached were added. After incubation, unbound peptides were removed by washing several times. Peptides that bound to OPN were detected using a primary anti-biotin antibody and a secondary antibody linked to horseradish peroxidase. This enzyme catalyses a reaction in which a coloured product is formed from the added substrate. The amount of bound peptides was proportional to the amount of coloured product, which was measured using a spectrophotometer. Of the 52 integrin receptor-derived peptides tested, 9 OPN-binding peptides were identified: I3, I4, I20, I32, I38, I40, I47, I49, I50 (FIG. 2B). The following peptides were selected for further analysis: […], I4, I20, I32, I38, I40, I47, I49, I50.

In experiment [1] the test system is U87 MG cells stimulated by BV2 microglial cells. In words: Matrigel invasiveness of U87 MG cells in co-culture with BV2 microglia. Type of experiment: cell-based, human. As to conditions: 100 μM, 18 h. On the procedure:
(§1) FIG. 4. Effect of OPN binding peptides on U87 MG cell invasiveness in the presence of murine BV2 and human SV40 microglial cells. (K−)—negative control—invasiveness of U87 MG cells without microglia; (K+)—positive control, invasiveness of U87 MG dependent on BV2 or SV40 microglia, defined as 100%; DMSO-cells treated with 0.2% DMSO-peptide solvent. Results are presented as means ±standard deviation calculated from three independent biological replicates. Selected peptides block microglia-dependent invasiveness.
(§2) Studies conducted by the present inventors indicate an important role of the OPN protein in the reprogramming of microglia and peripheral macrophages by glioblastoma cells to a protumorigenic phenotype (Ellert-Miklaszewska et al. 2016). […] Investigating the contribution of human OPN to human glioblastoma growth is important in the context of using a peptide that binds human OPN produced by glioma and can block communication between the glioma and the microenvironment. The U87 MG RFP human glioblastoma cell line was established with silenced expression of the OPN protein (shOPN). […] The number of glioma cells actively penetrating the Matrigel Matrix layer (BD Biosciences, extracellular matrix surrogate) in the presence of SV40 human microglial cells was counted. Microglial cells are plated on 24-well plate, after 24 hours, inserts previously covered with Matrigel suspension are placed in the wells, and glioblastoma cells are seeded on its surface. The tested compounds, potentially blocking the invasiveness of cells, are added in a certain concentration to the medium in both the lower and upper layers of the system. After 18 hours of incubation, the Matrigel is removed and the cells on the insert membrane (invading cells) are fixed and stained with a DAPI fluorescent marker. Slides were then photographed using a fluorescence microscope and cells were counted using Image J software (imagej.nih.gov/ij/).
(§3) The effect of selected OPN-binding peptides on the invasiveness of U87 MG cells stimulated by the presence of microglial cells was investigated. […]

Experiment [2] concerns U87 MG cells and SV40 human microglia cells. Briefly: Matrigel invasiveness of U87 MG cells with SV40 human microglia. Type of experiment: cell-based. As to the method:
as §1, §2, §3

For experiment [3], the system named is human glioblastoma U87 MG RFP cells implanted in the brain of nude mice. In words: Mouse model of human glioblastoma, intratumoural osmotic pump, MRI tumour size. The note with it: osmotic pump for 3 weeks, MRI T2, control peptide I49S. Type of experiment: in vivo. On the procedure: FIGS. 5A and 5B. Effect of peptide 149 on glioblastoma growth in mice. (FIG. 5A) Representative images obtained after vital MRI imaging. The pictures show a section through the center of the tumour, showing the cannula supplying the peptide from the osmotic pump. (FIG. 5B) Tumour volume (n=10) calculated using OsiriX DICOM Viewer from MRI scans.
The anticancer effect of the 149 peptide has been tested. The model of human glioblastoma U87 MG RFP cells implanted in the brain of nude (immunodeficient) mice was used. Peptides were administered via osmotic pumps delivering the peptide directly to the tumour at a constant rate. […] Peptide I49 or control peptide I49S were administered using pumps for 3 weeks, pumps were installed in the mouse brain immediately after implantation of U87 MG RFP cells. Magnetic resonance imaging (MRI T2) was used to assess the size of the tumours.

T1 sequence (P06756 31-1048): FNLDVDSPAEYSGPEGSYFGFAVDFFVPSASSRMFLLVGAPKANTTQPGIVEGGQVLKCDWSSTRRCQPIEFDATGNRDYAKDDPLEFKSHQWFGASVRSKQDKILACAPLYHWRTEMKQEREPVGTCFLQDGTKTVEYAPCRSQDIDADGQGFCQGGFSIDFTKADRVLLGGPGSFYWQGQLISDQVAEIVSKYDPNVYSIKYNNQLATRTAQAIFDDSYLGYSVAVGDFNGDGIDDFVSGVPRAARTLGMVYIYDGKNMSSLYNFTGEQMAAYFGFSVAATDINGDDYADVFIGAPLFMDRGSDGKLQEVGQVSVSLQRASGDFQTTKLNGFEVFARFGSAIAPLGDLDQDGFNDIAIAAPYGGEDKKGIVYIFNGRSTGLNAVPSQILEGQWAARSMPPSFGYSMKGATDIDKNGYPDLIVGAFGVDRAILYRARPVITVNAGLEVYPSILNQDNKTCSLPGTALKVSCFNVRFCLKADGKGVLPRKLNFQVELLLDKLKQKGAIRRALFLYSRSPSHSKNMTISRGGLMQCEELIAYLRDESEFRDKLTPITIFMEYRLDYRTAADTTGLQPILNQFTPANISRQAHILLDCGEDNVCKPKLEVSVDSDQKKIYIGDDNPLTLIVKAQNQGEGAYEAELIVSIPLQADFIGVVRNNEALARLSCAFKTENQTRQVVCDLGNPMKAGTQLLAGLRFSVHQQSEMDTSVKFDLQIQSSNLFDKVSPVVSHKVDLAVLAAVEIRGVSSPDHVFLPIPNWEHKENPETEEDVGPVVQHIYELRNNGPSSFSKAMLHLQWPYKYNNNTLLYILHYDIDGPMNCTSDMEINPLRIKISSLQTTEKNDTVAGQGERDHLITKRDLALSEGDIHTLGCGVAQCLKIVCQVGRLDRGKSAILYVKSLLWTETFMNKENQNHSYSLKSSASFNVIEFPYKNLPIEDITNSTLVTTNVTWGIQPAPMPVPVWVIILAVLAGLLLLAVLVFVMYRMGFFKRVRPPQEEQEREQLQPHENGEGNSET

As for `CC(C)[C@H]1C(=O)N[C@@H](CCCN=C(N)N)C(=O)NCC(=O)N[C@@H](CC(=O)O)C(=O)N[C@H](Cc2ccccc2)C(=O)N1C` [cilengitide, cyclo-(Arg-Gly-Asp-DPhe-NMe-Val)], the clinical effectiveness entry on alphav integrins is “did not show the effectiveness”.

For “SKYDPNVYSIKYNN (listed as Homo sapiens) [I40]”, the “peptide binding to OPN in ELISA” value with recombinant OPN protein is on record as “OPN-binding”. In experiment [1], the “inhibition of microglia-dependent glioma cell invasiveness” value (“inhibition” below) is “inhibited microglia-dependent glioma cell invasiveness”. For the same compound, the “effect on invasiveness of U87 cells in the presence of human SV40 microglia” value (from here on “effect on invasiveness of U87 cells”) in experiment [2] is on record as “inhibited the invasiveness”.

As to “SLYNFTGEQMAAYF (listed as Homo sapiens) [I50]”, the “peptide binding to OPN in ELISA” value with recombinant OPN protein is recorded as “OPN-binding”. In addition, in experiment [1], the “inhibition” value is “inhibited microglia-dependent glioma cell invasiveness”. Moreover, the “effect on invasiveness of U87 cells” value in experiment [2] is listed as “inhibited the invasiveness”.

YDGKNMSSLYNFTG [I49]: the “peptide binding to OPN in ELISA” value on recombinant OPN protein was “OPN-binding”. The “inhibition” value in experiment [1] is on record as “inhibited microglia-dependent glioma cell invasiveness”. In experiment [2], the “effect on invasiveness of U87 cells” value is recorded as “inhibited the invasiveness”. For the same compound, in experiment [3], the “tumour growth compared to the control group” value is “reduction in tumour growth”.
